# Data: patent US7208521B2, “Selective inhibitors of the urokinase plasminogen activator” (Wilex AG, priority 1999, dated 2007)
# pKi: −log10 of the molar value. Where two headings read alike, the source gives them in different places.
# Legend:
# [1] = target: T1, Trypsin (UniProt P00760); assay: In-vitro protease inhibition, chromogenic substrate, Dixon Ki; assay type: biochemical
# T1 sequence (P00760 1-246): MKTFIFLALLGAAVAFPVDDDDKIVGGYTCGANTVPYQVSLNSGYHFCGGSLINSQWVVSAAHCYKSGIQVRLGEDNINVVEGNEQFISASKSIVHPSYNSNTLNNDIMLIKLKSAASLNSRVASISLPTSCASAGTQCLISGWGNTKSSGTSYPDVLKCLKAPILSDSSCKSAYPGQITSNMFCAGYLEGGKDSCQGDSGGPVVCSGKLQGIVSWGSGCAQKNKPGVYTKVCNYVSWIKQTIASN
# Procedure: The Ki values were determined by linear regression according to Dixon by means of a computer program.
# [2] = target: Plasmin (Homo sapiens, UniProt P00747); assay: as above; assay type: biochemical; details: 25° C., pH 8.0
# Procedure: (§1) The uPA inhibitor activity was determined by incubating 200 μl of Tris buffer (0.05 mol/l, containing the inhibitor, 0.154 mol/l NaCl, 5% ethanol, pH 8.0), 25 μl of substrate (Pefachrome UK or BZ-β-Ala-Gly-Arg-pNA in H2O; Pentapharm Ltd, Basle, Switzerland) and 50 μl of sc-urokinase (Ribosepharm GmbH, Haan, Germany) or another corresponding protease at 25° C. After 3 min, the reaction was interrupted by adding 25 μl of acetic acid (50%) and absorbance at 405 nm was determined by means of a microplate reader (MR 5000, Dynatech, Denkendorf, Germany). The Ki values were determined by linear regression according to Dixon by means of a computer program. The Ki values are the average of at least three determinations, and the standard deviation was below 25%.
# [3] = target: F Xa (Homo sapiens, UniProt P00742); assay: as above; assay type: biochemical
# Procedure: as §1
# [4] = target: Thrombin (Homo sapiens, UniProt P00734); assay: as above; assay type: biochemical
# Procedure: as §1
# [5] = target: T2, sc-urokinase (uPA) (Homo sapiens, UniProt P00749); assay: In-vitro inhibition of urokinase, chromogenic substrate, Dixon Ki; assay type: biochemical
# T2 construct: purchased Ribosepharm GmbH, Haan, Germany
# Procedure: as §1
# [6] = system: rat breast adenocarcinoma cells; details: after i.v. inoculation of tumor cells; cited from earlier work
# [7] = system: DU145 tumors (a prostate adenocarcinoma cell line); details: oral, daily dose of 125 to 250 mg/kg/day; cited from earlier work
# [8] = system: rat prostate cancer; details: syngeneic rat prostate cancer; cited from earlier work
# [9] = system: mouse breast cancer; details: cited from earlier work
# [10] = 25° C., pH 8.0; read-out: Ki Trypsin
# [11] = 25° C., pH 8.0, read-out: Ki F Xa
# [12] = 25° C., pH 8.0, read-out: Ki Thrombin
# [13] = 25° C., pH 8.0, average of at least three determinations, read-out: Ki uPA
# [14] = read-out: Ki Trypsin; 25° C., pH 8.0
# [15] = Ki uPA, 25° C., pH 8.0, average of at least three determinations
# Sequence of Plasmin (P00747 581-810 limits assumed, species assumed): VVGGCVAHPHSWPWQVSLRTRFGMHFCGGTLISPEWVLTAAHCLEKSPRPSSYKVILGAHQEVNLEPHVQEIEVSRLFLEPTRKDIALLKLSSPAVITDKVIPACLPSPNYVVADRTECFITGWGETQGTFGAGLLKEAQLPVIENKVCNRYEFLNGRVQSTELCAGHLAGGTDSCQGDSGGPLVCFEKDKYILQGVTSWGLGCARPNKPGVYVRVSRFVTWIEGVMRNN
# Sequence of Plasmin (P00747 97-580 partner limits assumed, species assumed): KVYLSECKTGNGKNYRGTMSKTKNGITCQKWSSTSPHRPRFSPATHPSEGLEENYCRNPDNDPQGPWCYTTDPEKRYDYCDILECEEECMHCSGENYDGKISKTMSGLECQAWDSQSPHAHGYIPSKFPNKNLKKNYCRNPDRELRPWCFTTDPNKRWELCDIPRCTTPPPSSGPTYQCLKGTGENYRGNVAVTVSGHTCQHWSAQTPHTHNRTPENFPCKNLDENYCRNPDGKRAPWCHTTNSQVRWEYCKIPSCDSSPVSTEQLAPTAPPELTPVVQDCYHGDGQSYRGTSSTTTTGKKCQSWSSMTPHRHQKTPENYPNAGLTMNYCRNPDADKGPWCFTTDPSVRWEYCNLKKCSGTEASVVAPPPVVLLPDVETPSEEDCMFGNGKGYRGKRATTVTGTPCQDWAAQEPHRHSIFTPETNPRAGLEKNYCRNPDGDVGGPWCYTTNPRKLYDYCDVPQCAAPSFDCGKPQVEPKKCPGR
# Sequence of F Xa (P00742 235-488 limits assumed): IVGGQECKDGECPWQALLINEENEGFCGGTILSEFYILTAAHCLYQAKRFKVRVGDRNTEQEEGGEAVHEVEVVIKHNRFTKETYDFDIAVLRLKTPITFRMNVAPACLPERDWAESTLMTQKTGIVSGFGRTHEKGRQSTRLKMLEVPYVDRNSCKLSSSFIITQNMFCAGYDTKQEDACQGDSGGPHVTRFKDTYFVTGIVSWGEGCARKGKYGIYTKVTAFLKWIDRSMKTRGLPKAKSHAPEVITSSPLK
# Sequence of F Xa (P00742 41-179 partner limits assumed): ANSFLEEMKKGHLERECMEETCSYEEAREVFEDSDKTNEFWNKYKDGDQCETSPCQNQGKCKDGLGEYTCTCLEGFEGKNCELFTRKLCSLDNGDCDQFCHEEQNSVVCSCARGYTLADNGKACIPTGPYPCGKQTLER
"pKi [1, 10]",pKi [2],"pKi [3, 11]","pKi [4, 12]","pKi [5, 13]",Compound,also measured
4.43,< 3.00,< 3.00,< 3.00,4.38,CC(C)c1cc(C(C)C)c(S(=O)(=O)NCC(=O)NCc2ccc(NC(=N)N)cc2)c(C(C)C)c1 [ST 298],–
< 3.00,< 3.00,< 3.00,< 3.00,4.44,CC(C)(C)OC(=O)NCc1ccc(NC(=N)N)cc1 [ST 242],–
< 3.00,3.77,3.48,< 3.00,4.54,N=C(N)Nc1ccc(CNC(=O)Nc2ccccc2)cc1 [ST 301],–
< 3.00,3.89,< 3.00,< 3.00,4.28,CC(C)OC(=O)NCc1ccc(NC(=N)N)cc1 [ST 273],–
< 3.00,< 3.00,< 3.00,< 3.00,4.57,CCOC(=O)NCc1ccc(NC(=N)N)cc1 [ST 269],–
< 3.00,< 3.00,< 3.00,< 3.00,4.29,CC(C)(C)COC(=O)NCc1ccc(NC(=N)N)cc1 [ST 271],–
3.70,–,< 3.00,< 3.00,4.92,N=C(N)Nc1ccc(CNC(=O)OCc2ccc([N+](=O)[O-])cc2)cc1 [ST 311],–
4.38,< 3.00,< 3.00,< 3.00,4.66,CC(=O)Nc1ccc(S(=O)(=O)NCC(=O)NCc2ccc(NC(=N)N)cc2)cc1 [ST 296],–
< 3.00,< 3.00,< 3.00,< 3.00,3.62,CC(=O)Nc1ncc(S(=O)(=O)NCc2ccc(NC(=N)N)cc2)s1 [ST 282],–
< 3.00,< 3.00,< 3.00,< 3.00,4.43,CC(C)(C)OC(=O)NCC(=O)NCc1ccc(NC(=N)N)cc1 [ST 294],–
–,–,< 3.00,< 3.00,4.46,COc1cc(COC(=O)NCc2ccc(NC(=N)N)cc2)c([N+](=O)[O-])cc1OC [ST 313],–

# The remaining lines, values behind:
Compound,"pKi [1, 10]",pKi [2],"pKi [3, 11]","pKi [4, 12]","pKi [5, 13]",also measured
N=C(N)Nc1ccc(CN)cc1 [ST 275],< 3.00,< 3.00,< 3.00,< 3.00,< 3.00,–
N=C(N)Nc1ccc(CNC(=O)OC23C[C@H]4C[C@@H](C2)C[C@@H](C3)C4)cc1 [ST 274],< 3.00,< 3.00,< 3.00,< 3.00,4.64,–
N=C(N)Nc1ccc(CNC(=O)NC23C[C@H]4C[C@@H](C2)C[C@@H](C3)C4)cc1 [ST 293],4.34,< 3.00,< 3.00,3.22,5.62,"uPA inhibition, result in words [5]: particularly effective and selective inhibitors; pKi ([5]; read-out: Ki value for uPA): < 3.00"
N=C(N)NC(=O)c1nc(Cl)c(N)nc1N [amiloride],–,–,–,–,–,formation of lung metastases [6]: prevents the formation of lung metastases
N=C(N)c1ccc(N)cc1 [p-Aminobenzamidine],–,–,–,–,–,growth rate of DU145 tumors [7]: distinct decrease in the growth rate; side effects [7]: negligible
CC(C)(c1ccc(OC(=O)NCc2ccc(NC(=N)N)cc2)cc1)c1ccc(OC(=O)NCc2ccc(NC(=N)N)cc2)cc1 [ST 312],–,–,–,–,–,"pKi [1, 14]: 4.00; pKi [3]: < 3.00; pKi [4]: < 3.00; uPA inhibition, result in words [5]: particularly effective and selective inhibitors; pKi [5, 15]: 5.55; pKi ([5]; Ki value for uPA): < 3.00"
"N=C(N)c1cc2c(I)cccc2s1 [B428, 4-iodobenzo[b]thiophene-2-carboxamidine]",–,–,–,–,–,tumor growth and metastases formation [8]: decrease of tumor growth and metastases formation; primary tumor growth ([9]; administered together with the antiestrogen tamoxifen): further decrease in primary tumor growth; tumor growth and metastases formation ([9]; syngeneic mouse breast cancer): decrease of tumor growth and metastases formation
N=C(N)Nc1ccc(CNC(=O)Oc2ccc(/N=N/c3ccccc3)cc2)cc1 [ST 315],–,–,–,–,–,"pKi [1, 14]: 3.70; pKi [3]: < 3.00; pKi [4]: < 3.00; pKi [5, 15]: 4.96; pKi ([5]; Ki value for uPA): < 3.00"
N=C(N)Nc1ccc(N)cc1 [ST 267],< 3.00,< 3.00,< 3.00,< 3.00,< 3.00,–
